Experimental data: PMC6797808, “Fucosylated inhibitors of recently identified bangle lectin from Photorhabdus asymbiotica” (Scientific Reports, 2019)
Values after ≈ are worked out from the molar mass of the structure shown. Marks after values point to notes of the source that are not given here.

How the values were obtained:
PHL [1] = target: T1, PHL (Photorhabdus asymbiotica, UniProt C7BLE4); test: Hemagglutination inhibition assay with PHL (papain-treated human RBCs O); assay type: cell-based; conditions: for MIC (minimal inhibitory concentration, hemagglutination by PHL): RBC O, two independent measurements; for PotencyL-Fuc / β L-Fuc (affinity improvement factor): hemagglutination; for PotencyL-Fuc: MIC L-fucose / MIC ligand; for β L-Fuc (affinity improvement factor): MICbasic unit/(valency × MICligand), basic unit L-Fuc
T1 sequence (C7BLE4 entry or part of it): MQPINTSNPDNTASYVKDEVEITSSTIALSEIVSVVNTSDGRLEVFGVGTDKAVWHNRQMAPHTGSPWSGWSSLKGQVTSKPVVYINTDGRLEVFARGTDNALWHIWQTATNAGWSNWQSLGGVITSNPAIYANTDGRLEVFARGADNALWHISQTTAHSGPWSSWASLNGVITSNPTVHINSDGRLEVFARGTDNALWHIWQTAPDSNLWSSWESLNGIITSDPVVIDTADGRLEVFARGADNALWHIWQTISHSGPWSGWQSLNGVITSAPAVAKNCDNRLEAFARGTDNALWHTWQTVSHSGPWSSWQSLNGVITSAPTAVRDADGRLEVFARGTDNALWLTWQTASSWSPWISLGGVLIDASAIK
Method: The set of potential ligands 1–10 with different levels of fucosylation was tested, and their inhibition potency on hemagglutination by PHL was assessed (Table 1, Fig. 2). […] To assess the contribution of valency to the affinity increase, an affinity improvement factor β was calculated as the relationship MICbasic unit/(valency × MICligand).
Human red blood cells (RBCs) O were processed according to previously published work[16]. In brief, RBCs O treated with sodium citrate were washed four times by PBS buffer (137 mM NaCl, 2.7 mM KCl, 8 mM Na2HPO4, 1.47 mM KH2PO4, pH 7.4), diluted to 50% by PBS with 0.005% (w/w) sodium azide and treated by 0.1% papain for the duration of 30 minutes.
Hemagglutination inhibition assay was performed for specificity and semi-quantitative affinity of the PHL interaction with the compounds. All carbohydrate inhibitors in 50 mM starting concentration were serially diluted in the PBS buffer and used for a determination of the lowest inhibiting concentration. As a blank, the PBS buffer supplemented with the appropriate amount of DMSO was used in order to exclude potential interference with the interaction. The individual samples were mixed with the lectin in concentration 2 mg/ml in a 5 μl:5 μl ratio. Thereafter, 10 μl of 10% RBCs O in PBS buffer was added, thoroughly mixed and incubated for 10 minutes at room temperature. Following incubation, the mixture was again mixed and the reaction was observed on microscope slides using Levenhuk 2L NG microscope with Levenhuk D2L digital camera (Levenhuk, USA). Imagines were obtained via software ToupView for Windows (Levenhuk). The positive (PHL without inhibitor) and negative control (reaction without PHL) were prepared and processed in the same way using the appropriate volume of PBS buffer instead of the not included components. The lowest concentration of inhibitor able to inhibit agglutination was determined and compared with the standard (L-fucose). Minimal inhibitory concentrations (MIC) of synthesised inhibitors were determined from two independent measurements.

PHL [2] = target: T1, PHL; test: SPR competitive inhibition of PHL binding to α-L-fucoside sensor chip; conditions: for IC50: 25 °C, three independent measurements; for β L-Fuc (affinity improvement factor): IC50,basic unit/(valency × IC50,ligand), basic unit L-Fuc; for PotencyL-Fuc: IC50 L-fucose / IC50 ligand
Method: To analyse the competitive inhibition of PHL binding to a multivalent surface, the surface plasmon resonance (SPR) technique was employed. A sensor chip presenting α-L-fucopyranoside residues was treated with a constant concentration of PHL, while an increasing concentration of the ligands was used to determine IC50 (Table 2, Fig. 3). […] To assess the contribution of valency to the affinity increase, an affinity improvement factor β was calculated as the relationship IC50,basic unit/(valency × IC50,ligand)[30].
Surface plasmon resonance (SPR) experiments were performed on a BIAcore T200 instrument (GE Healthcare, UK) at 25 °C, using buffer A supplemented with 0.05% Tween 20 as a running buffer. α-L-fucoside was immobilized onto CM5 sensor chip (GE Healthcare, UK) covered with a carboxymethylated dextran matrix. The sensor chip surface was activated with N-ethyl-N-(3-dimethylaminopropyl)carbodiimide/N-hydroxysuccinimide solution and then coated with streptavidin using the manufacturer’s standard protocol using HBS buffer (10 mM HEPES, 150 mM NaCl, 0.05% Tween 20, pH 7. 5). Unreacted groups were blocked with 1 M ethanolamine-HCl, pH 8.5. Biotinylated carbohydrate (biotinilated monomeric probes, Lectinity, Russia) was injected onto particular measuring channel and pure biotin on blank channel at a flow rate of 5 μl/min.
SPR inhibition measurements were carried out on measuring channel with L-fucoside at a flow rate of 5 µl/min. PHL was diluted to a concentration of 20 μg/ml by the buffer A supplemented with 0.05% Tween 20, mixed 1:1 (v/v) with various concentrations of inhibitors (500–5 μM) in the same buffer and injected onto the sensor chip. The response of lectin bound to the sugar surface at equilibrium was plotted against the concentration of inhibitor in order to determine IC50 (concentration of inhibitor resulting in 50% inhibition of binding). As IC50 is not a constant and depends on the experimental set-up, a parameter called potency was used for characterization. The potency of a tested inhibitor is the ratio of IC50 of a chosen standard inhibitor (in this case L-fucose) and the inhibitor in question. Pure PHL lectin was used as a control (0% inhibition) and channel with pure biotin served as a blank. IC50 was determined from triplicates.

PHL [3] = target: T1, PHL; test: Isothermal titration calorimetry of PHL with ligands; assay type: binding; conditions: for Potency L-Fuc / β L-Fuc (affinity improvement factor): ITC; for Potency L-Fuc: KD L-fucose / KD ligand; for β L-Fuc (affinity improvement factor): KD,basic unit/(valency × KD,ligand), basic unit L-Fuc
Source text: The binding of PHL to different α-L-fucoside compounds was further characterized by isothermal titration calorimetry (ITC), enabling determination of the complete thermodynamic profile of the molecular interactions (Table 3, Fig. 4). […] Because of this, it was not possible to evaluate the data, despite the obvious interaction. The dendrimers also cross-linked/aggregated the protein as with calixarenes, however the curves provided clear outcomes with an affinity in the low micromolar range. The dissociation constants (KD) of all dendrimers correlate with their valency – the higher number of fucose, the more decreased KD. […] The stoichiometry value n corresponds to the number of terminal fucoses per ligand molecule. The n value decreases from 4 to 1 as the number of fucose units increases from 1 to 12 (Table 3).
PHL protein in buffer A was equilibrated at room temperature at least for 30 min before ITC measurement. All ITC experiments were performed using ITC200 calorimeter (Malvern Panalytical, UK) at 25 °C. Carbohydrate ligands dissolved in buffer A were used at different concentrations. Protein in the calorimeter cell (50 μM) was titrated by consecutive additions (2 μl) of the ligand (1.5–5 mM) in the syringe while stirring at 1000 rpm. Integrated heat effects were analysed by nonlinear regression using a single-site binding model and global fitting in Origin 7 software (Microcal Instruments)[37]. The thermodynamic parameters of synthesised inhibitors were determined from two independent measurements.

In the case of `C[C@@H]1OC(CCCCC2O[C@@H](C)[C@@H](O)[C@@H](O)[C@@H]2O)[C@@H](O)[C@H](O)[C@@H]1O` (stereo partly drawn) [Difucoside 5, 1,4-bis(fucopyranosyl)butane], the “MIC (minimal inhibitory concentration, hemagglutination by PHL)” value (PHL [1]) is reported as 200 µM (≈ 70.1 µg/mL), the PotencyL-Fuc (PHL [1]) is reported as 15.6 and the PotencyL-Fuc (PHL [1]; listed as difucoside 5) is reported as 16. The “β L-Fuc (affinity improvement factor)” value (PHL [1]) was 7.8, the IC50 (PHL [2]) was 4.18 ± 0.42 µM and the “β L-Fuc (affinity improvement factor)” value (PHL [2]) was 43. For the same compound, the PotencyL-Fuc (PHL [2]) was 86, the Kd (PHL [3]; ITC at 25 °C) was 120 ± 11 µM and the “−TΔS” value (PHL [3]; ITC at 25 °C) was 3.61 ± 0.789 kcal/mol. The “−ΔG” value (PHL [3]; ITC at 25 °C) was 5.35 ± 0.502 kcal/mol, the “−ΔH” value (PHL [3]; ITC at 25 °C) was 8.96 ± 0.621 kcal/mol and the “n (stoichiometry)” value (PHL [3]; ITC at 25 °C, two independent measurements) was 3.9 ± 0.2. For the same compound, the “Potency L-Fuc” value (PHL [3]) was 12 and the “β L-Fuc (affinity improvement factor)” value (PHL [3]) was 6.
For `C[C@H](O)[C@@H](O)[C@@H](O)[C@H](O)C=O` [L -Fuc, L-fucose, reference compound], the “MIC (minimal inhibitory concentration, hemagglutination by PHL)” value (PHL [1]) was 3,200 μM, the PotencyL-Fuc (PHL [1]) was 1 and the “β L-Fuc (affinity improvement factor)” value (PHL [1]) was 1. For the same compound, the IC50 (PHL [2]) was 362 ± 33 µM, the “β L-Fuc (affinity improvement factor)” value (PHL [2]) was 1 and the PotencyL-Fuc (PHL [2]) was 1. For the same compound, the Kd (PHL [3]; ITC at 25 °C) was 1400 µM, the “−TΔS” value (PHL [3]; ITC at 25 °C) was 10.3 ± 0.239 kcal/mol and the “−ΔG” value (PHL [3]; ITC at 25 °C) was 3.9 ± 0.096 kcal/mol. For the same compound, the “−ΔH” value (PHL [3]; ITC at 25 °C) was 14.2 ± 0.239 kcal/mol, the “n (stoichiometry), fixed during the fitting procedure” value (PHL [3]; ITC at 25 °C, fixed value based on α-Me-Fuc measurement and PHL/BGH crystal structure) was 3* and the “Potency L-Fuc” value (PHL [3]) was 1. The “β L-Fuc (affinity improvement factor)” value (PHL [3]) was 1.
